Assay results: patent publication US11673889B2, “Substituted imidazo[4,5-c][1,8]naphthyridines as phosphodiesterase inhibitors” (Nanjing Zhengxiang Pharmaceuticals Co., Ltd., priority 2019, dated 2023)
pIC50: −log10 of the molar value.

Legend:
[1] = target: T1, ENPP-1, MDA-MB-231 cells (Homo sapiens, UniProt P22413); assay: cell-based; details: for inhibition at 20 µM: MDA-MB-231, read-out: % Inhibition (at 20 μM)
T1 sequence (P22413 1-925): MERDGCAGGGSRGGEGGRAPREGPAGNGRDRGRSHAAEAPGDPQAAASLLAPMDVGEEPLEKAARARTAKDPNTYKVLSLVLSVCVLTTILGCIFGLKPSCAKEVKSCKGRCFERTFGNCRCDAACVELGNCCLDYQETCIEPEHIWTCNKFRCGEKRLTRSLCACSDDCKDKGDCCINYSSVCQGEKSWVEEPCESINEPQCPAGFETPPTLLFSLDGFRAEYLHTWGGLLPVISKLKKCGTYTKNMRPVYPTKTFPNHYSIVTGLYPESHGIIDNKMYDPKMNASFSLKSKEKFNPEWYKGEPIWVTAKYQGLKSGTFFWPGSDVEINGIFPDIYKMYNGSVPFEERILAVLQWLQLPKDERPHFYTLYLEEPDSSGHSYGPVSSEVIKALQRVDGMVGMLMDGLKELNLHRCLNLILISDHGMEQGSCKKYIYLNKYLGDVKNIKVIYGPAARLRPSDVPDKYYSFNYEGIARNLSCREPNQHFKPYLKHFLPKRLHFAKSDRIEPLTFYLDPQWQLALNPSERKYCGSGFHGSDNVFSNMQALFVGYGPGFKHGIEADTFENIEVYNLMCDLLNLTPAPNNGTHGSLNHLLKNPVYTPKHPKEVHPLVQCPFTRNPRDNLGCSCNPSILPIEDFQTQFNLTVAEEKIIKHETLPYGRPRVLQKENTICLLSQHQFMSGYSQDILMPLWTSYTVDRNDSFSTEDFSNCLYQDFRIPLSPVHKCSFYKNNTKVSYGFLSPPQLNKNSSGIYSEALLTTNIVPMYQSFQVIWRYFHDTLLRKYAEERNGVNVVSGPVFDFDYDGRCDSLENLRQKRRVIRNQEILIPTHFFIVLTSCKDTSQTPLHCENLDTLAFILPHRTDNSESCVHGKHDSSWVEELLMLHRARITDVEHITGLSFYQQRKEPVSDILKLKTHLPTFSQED

[2] = target: T2, ENPP-1, HEK293 cells (Homo sapiens, UniProt P22413); assay: Cellular enzymatic assay of ENPP-1 inhibitors using TMP-pNP as substrate, HEK 293 cells; format: cell-based; details: for inhibition at 20 µM: HEK293, HEK 293 cells, read-out: Inhibition (at 20 μM)
T2 construct: ENPP-1 were mainly expressed on the surface of cell membrane; endogenous in cells; host or cells: HEK293
T2 sequence (P22413 1-925): T1 sequence (P22413 1-925)
Method: (§1) ENPP-1 were mainly expressed on the surface of cell membrane where it hydrolytes 2′3′-cGAMP to generate 5′-GMP and 5′-AMP. ENPP-1 also has the ability to hydrolyzes artificial phosphoric acid ester TMP-pNP to nucleotide-5′-monophosphate and p-nitrophcnol there, which is a chromogenic product.
(§2) 8 point of different concentrations of each inhibitor were prepared with the final assay concentrations starting at 20 μM. 3× series dilution by DMEM medium without FBS was applied. Prior to adding inhibitors, 75000 cells per well were incubated at 37° C., 5% CO2 in DMEM for 24 hours. After removing the supernatant medium, 50 μL inhibitor solution was added into each well with cultured cells and incubate at 37° C., 5% CO2 for 60 minutes.
(§3) The IC50 values for percent inhibition versus compound concentration are determined by fitting the inhibition curves using a four-parameter variable slope model in GraphPad Prism® 8.

[3] = target: T3, ENPP-1, Saos-2 cells (Homo sapiens, UniProt P22413); assay: Cellular enzymatic assay of ENPP-1 inhibitors using TMP-pNP as substrate, Saos-2 cells; format: cell-based
T3 construct: ENPP-1 were mainly expressed on the surface of cell membrane; endogenous in cells; host or cells: Saos-2
T3 sequence (P22413 1-925): T1 sequence (P22413 1-925)
Method: as §1, §2, §3

[4] = Liver microsome stability, mouse; format: in vitro ADME
Method: (§4) Liver microsome assay was used to evaluate the metabolic stability of I-VI. The test article at the concentration of […] was incubated with 0.5 mg/mL liver microsome in the presence of NADPH and UDPGA as the co-factors for 0, 15, 30, 45 and 60 minutes. The incubation was carried out at 37° C. with 5% CO2 and saturating humidity. Disappearance of the test article was monitored by LC/MS/MS. the disappearance half-life (t1/2), intrinsic clearance and hepatic extraction ratio were determined.

[5] = Liver microsome stability, human; format: in vitro ADME
Method: as §4

| Compound | pIC50 [1] | inhibition at 20 µM [1] | pIC50 [2] | inhibition at 20 µM [2] | pIC50 [3] | inhibition at 20 µM ([3]; Saos-2 cells, @20 μM, read-out: % Inhibition (@20 μM)) | Hepatic extraction ratio Re ([4]; Mouse liver microsome) | half-life ([4]; liver microsomes, Mouse liver microsome 0.5 mg/mL, NADPH and UDPGA, 37° C., read-out: Half-life t1/2) | microsomal CLint ([4]; liver microsomes, Mouse liver microsome, read-out: Intrinsic clearance Cl′int, (μL/min/mg protein)) | Hepatic extraction ratio Re ([5]; Human liver microsome) | half-life ([5]; liver microsomes, Human liver microsome 0.5 mg/mL, NADPH and UDPGA, 37° C., read-out: Half-life t1/2) | microsomal CLint ([5]; liver microsomes, Human liver microsome, read-out: Intrinsic clearance Cl′int, (μL/min/mg protein)) |
| --- | --- | --- | --- | --- | --- | --- | --- | --- | --- | --- | --- | --- |
| COc1ccc2c(ncc3nc(C)n(Cc4ccc(S(N)(=O)=O)cc4)c32)n1 [Compound 48, 4-((7-methoxy-2-methyl-1H-imidazo[4,5-c][1,8]naphthyridin-1-yl)methyl)benzenesulfonamide] | 6.26 | 80% | 6.17 | 95% | – | – | – | – | – | – | – | – |
| COc1ccc2c(n1)nc(C)c1nc(C)n(Cc3ccc(S(N)(=O)=O)cn3)c12 [Compound 89, 6-((7-methoxy-2,4-dimethyl-1H-imidazo[4,5-c][1,8]naphthyridin-1-yl)methyl)pyridine-3-sulfonamide] | 6.39 | 78% | – | – | – | – | – | – | – | – | – | – |
| COc1cc2ncc3ncn(Cc4ccc(S(N)(=O)=O)cn4)c3c2cc1OC [Compound 12, 6-((7,8-dimethoxy-1H-imidazo[4,5-c]quinolin-1-yl)methyl)pyridine-3-sulfonamide] | 6.26 | 79% | 5.64 | 85% | 6.00 | 87% | 0.20 | 3.95 h | 5.9 µL/min/mg | 0.14 | 8.27 h | 2.8 µL/min/mg |
